# Data published in patent publication US20250262251A1, “THERARONSTIC APPROACH FOR INFLAMMATORY BOWEL DISEASE-ASSOCIATED SPONDYLOARTHRITIS” (Cornell University, priority 2024, published 2025).
# Legend:
# [1] = test system: F. prausnitzii ATCC 27768; assay: F. prausnitzii in vitro culture with sulfapyridine (growth, RNA-seq, qPCR, mass spectrometry); format: cell-based, Faecalibacterium prausnitzii
# Method: (§1) To determine drug fecal levels and its impact on fecal metabolites, fecal samples were treated with cold 80% methanol for 4 hours at 4° C. Samples were then centrifuged at 14,000 g for 20 min at 4° C. Supernatants were transferred to a sterile 1.5 ml tube and stored at-80° C. Bacterial supernatants were treated with 4X volume of the 80% methanol. Polar metabolomic analysis was performed by the WCM Proteomics and Metabolomics Core for target polar metabolomics analysis by LC-MS. Metabolites were identified using an in-house library established using chemical standards. Identification required exact mass (within 5ppm) and standard retention times. To determine short chain fatty acids (SCFAs) fecal levels, target metabolomics were performed using liquid chromatography-quadruple-time of flight mass spectrometry as previously described^62. Relative metabolite quantitation was performed based on peak area for each metabolite evaluated and normalized by sample weight.
# (§2) CFU from F. prausnitzii cultures were assessed anaerobically in YCFA agar. Growth was measured by absorbance, OD600, on SpectraMax Plus (Molecular Devices, San Jose, CA). RNA isolation was performed using RNeasy PowerMicrobiome kit (Qiagen, Hilden, Germany) following the manufacture instructions. RNA was then quantified by Nanodrop prior to reverse transcription with qScript cDNA SuperMix kit (Quantabio, Beverly, MA) or RNAseq library preparation.
# RNA-seq library preparation and sequencing were performed by WCM Genomics Core. For library preparation, the Illumina Stranded Total RNA Prep kit was used. High-throughput sequencing was performed using the PE 2×50 cycles protocol in the NovaSeq 6000 Illumina platform targeting 10 million reads/sample. Bioinformatics and statistical analysis were then performed by the WCM Bioinformatics Core. Samples were aligned with STAR^67 to NCBI reference genome GCF_000154385.1 (F. prausnitzii M21/2). Quality control was performed with QoRTs^68 on aligned BAM files. Counts per gene were then calculated using featureCounts^69. BioCyc^70 analyses were performed with clusterProfiler to identify pathways/gene sets that are overrepresented among the differentially expressed genes.
# (§3) qPCR was performed on an Applied BioSciences Quant Studio 6 Flex Real-time PCR (Applied Biosystems, Waltham, MA) using PerfeCTa SYBR Green Fast mix, Low ROX (Quantabio, Beverly, MA). The following primers were used: for 16S rRNA gene −515F 5′ […] 3′ (SEQ ID NO:1), −926R 5′ […] 3′ (SEQ ID NO:2)^71 F. prausnitzii but gene F: 5′ […] 3′ SEQ ID NO:3), R: 5′ […] 3′ (SEQ ID NO:4) and E. rectale but gene F: 5′ […] 3′, SEQ ID NO:5) R: 5′ […] 3′ (SEQ ID NO:6) (designed on the PrimerQuest Tool from IDT, Coralville, IA). The thermocycler program was as follows: initial cycle of 95° C. for 60 s, followed by 40 PCR cycles at 95° C. for 5 s, 60° C. for 15 s, 72° C. for 15 s. Relative levels of the but target gene was determined by calculating the Δ Ct to the conserved 16S rRNA gene expression.
# E. rectale DSM 17629 = assay: E. rectale in vitro culture with sulfapyridine (but expression); format: cell-based, Eubacterium rectale; settings: SP 1 mM
# Method: as §2, §3
# [2] = test system: Jackson SPF or germ-free C57BL/6 WT mice; assay: Fecal short chain fatty acids and 5-ASA in SPF or germ-free mice treated with SAS or BSD; format: in vivo, mouse
# Method: (§4) Gnotobiotic C57BL/6 wild-type (WT) mice were bred and maintained at WCM Gnotobiotic Mouse facility. Specific pathogen free (SPF) C57BL/6 WT mice were ordered from Jackson Laboratory. C57BL/6 Gpr109a^−/− mice were obtained from Marcel van den Brink laboratory and were bred and maintained under SPF conditions at WCM.
# (§5) For induction of chemical colitis, 2% dextran sulfate sodium (DSS) (wt/vol) (M.W. 40,000-50,000; Affymetrix, Santa Clara, CA) was added to drinking water and administered ad libitum for 7 days. Mice were then monitored daily for weight loss and survival. Mouse Lipocalin-2 was measured in the cecal content supernatant using sandwich enzyme-linked immunosorbent assay (R&D Systems, Minneapolis, MN).
# as §1
# [3] = test system: patients with a clinical diagnosis of IBD and ASAS-defined SpA; assay: Prospective clinical study of SAS therapy in IBD-pSpA subjects (BASDAI, ASDAS, HBI, CRP); format: in vivo, human; parameters: proportion of treated patients who tolerated increase: dose or concentration left out as unconfirmed
# From the text: Eligible patients of any gender were between the ages of 18-80 with ulcerative colitis (UC) or Crohn's disease (CD) and ASAS criteria of pSpA defined as the presence of peripheral arthritis, enthesitis or dactylitis^50. Patients with active SpA, defined as ASDAS>1.3 and/or BASDAI≥4, were eligible to participate^51, 52. […] Participants who declined therapy or were intolerant of SAS were followed as standard of care controls. […] All patients provided voluntary informed consent and the study ethics was approved by the Weill Cornell institutional review board (IRB 1504016115).
# The primary endpoint of our analysis was clinical response in BASDAI, defined conservatively as a reduction in BASDAI of >2. Secondary endpoints were clinical response in ASDAS and Harvey Bradshaw Index (HBI) for CD defined as reduction in ASDAS of ≥1.1 at week 12 post-study initiation^51 or a decrease in HBI of ≥3^54, respectively. Exploratory analysis included absolute reduction in BASDAI, ASDAS, CRP, and HBI.
# To determine significance of […] variables, Student's t test was applied if two groups were compared, otherwise two-way ANOVA test was used. For non-parametric data, Wilcoxon matched-pairs signed-rank test was calculated when paired analyses were carried, otherwise Mann-Whitney test was applied. If required, Bonferroni or Tukey tests were applied for multiple comparison correction. Metagenomic and transcriptomic analyses were performed in R studio (Boston, MA) using R package ‘phyloseq’^66 and plots were constructed in ‘ggplot2’ or GraphPad (San Diego, CA). Differential gene expression analysis was performed with DESeq2^72. Differential taxa or pathway abundance was assessed using linear discriminant analysis (LDA) effect size (LEfSe)^31. Correlation between two continuous variables (e.g. fecal drug levels, Δ BASDAI, alpha diversity) was determined with linear regression models. For discriminating responders from non-responders, we fit linear regression models on the relative abundances of select taxa and constructed corresponding ROC curves. Area under the curve (AUC) and P values were computed using R.
# [4] = test system: fecal samples of IBD-pSpA subjects; assay: Fecal metabolomics of IBD-pSpA subjects treated with SAS; format: in vivo, human; settings: responders
# Method: as §1
# DSS-induced colitis = DSS-induced colitis in SPF WT mice; format: in vivo, mouse; settings: 2% DSS 7 days, SAS 300 mg/kg/day
# Method: as §4, §5
# (§6) All animal experiments were performed with 6-8-week-old WT, Gpr109a^−/− and heterozygous littermate mice. Both female and male mice were used with random and equal assignment of same sex to each experimental group. All animal studies were carried out in accordance with protocols approved by the Institutional Animal Care and Use Committee at WCM.
# [5] = test system: butyrate receptor Gpr109a; assay: DSS-induced colitis in Gpr109a-deficient and heterozygous mice; format: in vivo, mouse
# Method: as §4, §5, §6
# [6] = test system: gnotobiotic mice colonized with IBD-pSpA donor microbiomes; assay: Gnotobiotic mice colonized with responder or non-responder microbiomes: fecal butyrate and DSS colitis; format: in vivo, mouse
# Method: as §4, §5
# For gnotobiotic experiments, germ-free (GF) mice were gavaged with 1 g of homogenized patient fecal samples diluted in 10 ml of reduced PBS under anaerobic conditions, as previously described^53. Mice gavaged with ATCC 27768 F. prausnitzii received 1×10^9 colony forming units (CFU) grown under anaerobic conditions at log-phase in Yeast Casitone Fatty Acids Broth with Carbohydrate media (YCFAC, Anaerobe Systems, Morgan Hill, CA).
# as §1
# [7] = RNA-seq, SP 1 mM vs NaOH vehicle
# [8] = SPF WT mice, 300 mg/kg/day, day 14
smiles,measurement,setting,value
"Nc1ccc(S(=O)(=O)Nc2ccccn2)cc1 [SP, sulfapyridine]",effect of dose on F. prausnitzii growth,"[1]; 1 mM, anaerobic culture",sub-inhibitory
same,folT (folate ECF transporter S component FolT) expression,"[1]; RNA-seq, SP 1 mM",upregulation
same,acetate kinase (ackA) expression,[1]; [7],downregulation
same,but expression,[1]; [7],concomitant increase
same,phosphate acetyltransferase (pta) expression,[1]; [7],downregulation
same,thymidine kinase expression,[1]; bacterial cultures with SP,significant increase
same,thymine metabolites,[1]; bacterial cultures with SP,corresponding decrease
same,butyrate production,"[1]; mass spectrometry after 22 and 46 hours of culture, both timepoints",robustly increased
same,induction of but in response to SP on supplementation with folate,"[1]; qPCR, SP plus folate 566 μM",abrogated
same,expression of but in E. rectale,E. rectale DSM 17629,did not change
"O=C(O)CCNC(=O)c1ccc(/N=N/c2ccc(O)c(C(=O)O)c2)cc1 [BSD, balsalazide]",fecal butyrate levels compared to H2O vehicle controls,[2]; [8],numerically higher
same,conversion of prodrug by the mouse gut microbiome (5-ASA detection in fecal samples),"[2]; SPF mice, day 7 post-treatment initiation",efficiently converted
"O=C(O)c1cc(/N=N/c2ccc(S(=O)(=O)Nc3ccccn3)cc2)ccc1O [SAS, sulfasalazine]",proportion of treated patients who tolerated increase,"[3]; 22 patients treated with SAS, n=11",50%
same,absolute score reduction in BASDAI compared to controls,[3]; baseline to week 12,significant absolute score reduction
same,difference in CRP alone compared to controls,[3]; baseline to week 12,no difference
same,"reduction in all joint disease activity scores, 2 mg versus 4 mg daily",[3]; comparison between SAS doses,equivalent reduction
same,impact of baseline biologic or mesalamine therapy on change in disease activity scores following SAS treatment,"[3]; human, in vivo",did not impact
same,proportion with clinical improvement using ASDAS,"[3]; week 12, controls 0%, P=.07",28.6%
same,proportion of patients achieving clinical response in joint symptoms (reduction in BASDAI of >2),"[3]; week 12, controls 9.1%, P=.04",45.4%
same,thymine fecal abundance after SAS treatment,[4]; P=.016,significantly reduced
same,fecal deoxyuridine levels after SAS treatment,[4]; P=.05,concomitant increase
same,fecal butyrate levels post-treatment,[2]; GF mice,no changes
same,fecal acetate,[2]; [8],no significant change
same,fecal butyrate levels compared to H2O vehicle controls,[2]; [8],significant increase
same,fecal propionate,[2]; [8],no significant change
same,cecal lipocalin compared to control treated mice,DSS-induced colitis,reduced
same,mortality compared to control treated mice,DSS-induced colitis,significantly reduced
same,weight loss compared to control treated mice,DSS-induced colitis,attenuated
same,inflammation measured by lipocalin,[5]; mice deficient for Gpr109a,no effect
same,survival,[5]; mice deficient for Gpr109a,no effect
same,weight loss,[5]; mice deficient for Gpr109a,no effect
same,intestinal inflammation measured by cecal lipocalin,[5]; mice heterozygous for Gpr109a,decreased intestinal inflammation
same,survival,[5]; mice heterozygous for Gpr109a,significantly improved
same,weight loss,[5]; mice heterozygous for Gpr109a,reduced weight loss
same,abundance of fecal butyrate following SAS treatment,[6]; mice colonized with non-responder microbiome,not changed
same,abundance of fecal butyrate following SAS treatment,[6]; mice colonized with responder microbiomes,higher abundance
same,weight loss,"[6]; non-responder microbiomes, DSS",not responsive
same,intestinal inflammation measured by lipocalin,"[6]; responder microbiomes, DSS",reduced
same,weight loss,"[6]; responder microbiomes, DSS",reduced
